The source of these data is PMC3170876 (Chemmedchem, 2011).

SMILES strings stand for the structures.

One data set deals with human 11β-HSD1 (Homo sapiens, UniProt P28845). Nature of the data set: 11β-HSD1 inhibition cellular assay. In kind it is cell-based. Particulars: for IC50: IC50, human 11β-HSD1, HEK293 cell line transfected with human HSD11B1 gene, mean of three measurements, variance less than 20 %; for inhibition at 1 µM: HEK293, read-out: Percent inhibition.
Another data set has as its target mouse 11β-HSD1 (Mus musculus, UniProt P50172). Nature of the data set: Inhibition of mouse 11β-HSD1. In kind it is cell-based.
For another data set, the target named is T1, 17β-HSD1 (Homo sapiens, UniProt P14061).
T1 sequence (P14061 1-328): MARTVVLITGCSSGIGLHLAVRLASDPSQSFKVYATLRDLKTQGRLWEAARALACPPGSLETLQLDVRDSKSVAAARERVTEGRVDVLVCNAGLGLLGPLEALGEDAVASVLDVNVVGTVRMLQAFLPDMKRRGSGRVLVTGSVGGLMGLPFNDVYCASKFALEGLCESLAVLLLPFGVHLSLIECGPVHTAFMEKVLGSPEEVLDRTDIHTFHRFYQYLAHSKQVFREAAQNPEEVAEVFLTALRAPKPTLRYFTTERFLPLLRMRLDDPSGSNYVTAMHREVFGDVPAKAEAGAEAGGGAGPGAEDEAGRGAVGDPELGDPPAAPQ
Nature of the data set: Selectivity: inhibition of 17β-HSD1. Particulars: at a concentration of 10 μM (data not shown).

The next data set has as its target T2, human 11β-HSD2 (Homo sapiens, UniProt P80365).
T2 sequence (P80365 1-405): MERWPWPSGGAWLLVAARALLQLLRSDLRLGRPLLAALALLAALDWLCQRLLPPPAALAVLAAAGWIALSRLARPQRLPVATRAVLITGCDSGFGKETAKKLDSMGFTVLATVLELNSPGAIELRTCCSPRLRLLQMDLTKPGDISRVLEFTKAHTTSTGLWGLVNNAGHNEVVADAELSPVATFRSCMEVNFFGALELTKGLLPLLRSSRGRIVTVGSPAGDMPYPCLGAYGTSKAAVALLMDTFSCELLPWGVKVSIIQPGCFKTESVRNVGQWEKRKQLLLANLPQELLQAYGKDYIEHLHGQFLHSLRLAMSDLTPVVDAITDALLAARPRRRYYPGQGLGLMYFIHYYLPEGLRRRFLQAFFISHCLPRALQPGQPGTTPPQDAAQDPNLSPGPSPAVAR
Nature of the data set: Selectivity: inhibition of human 11β-HSD2. Conditions: at a concentration of 10 μM (data not shown). In kind it is cell-based.

Chain of human 11β-HSD1 (P28845 whole entry): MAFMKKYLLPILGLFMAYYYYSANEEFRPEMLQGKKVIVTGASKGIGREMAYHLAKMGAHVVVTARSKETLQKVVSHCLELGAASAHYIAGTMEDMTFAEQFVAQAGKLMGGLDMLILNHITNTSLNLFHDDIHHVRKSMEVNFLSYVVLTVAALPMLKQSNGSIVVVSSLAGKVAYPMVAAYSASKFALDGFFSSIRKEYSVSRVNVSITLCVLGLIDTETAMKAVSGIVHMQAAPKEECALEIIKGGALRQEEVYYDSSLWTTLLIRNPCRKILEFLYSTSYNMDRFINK
Chain of mouse 11β-HSD1 (P50172 whole entry): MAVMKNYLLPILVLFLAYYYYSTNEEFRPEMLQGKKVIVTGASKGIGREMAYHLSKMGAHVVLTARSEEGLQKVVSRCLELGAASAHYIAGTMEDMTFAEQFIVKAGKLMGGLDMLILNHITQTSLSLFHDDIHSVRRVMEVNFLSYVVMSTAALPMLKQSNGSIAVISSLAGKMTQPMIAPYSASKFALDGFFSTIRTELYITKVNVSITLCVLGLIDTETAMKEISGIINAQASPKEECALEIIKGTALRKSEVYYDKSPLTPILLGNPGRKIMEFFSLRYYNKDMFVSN

With `O=C(COCc1cccs1)C12CC3CC(CC(C3)C1)C2` [Compound 6, 1-(Adamantan-1-yl)-2-(thiophen-2-ylmethoxy)ethanone], the melting point (usually the temperature, or range, at which the solid turns liquid) is 57 to 58 °C. For the same compound, the half-maximal inhibitory concentration (IC50) (as a rule, the concentration at which inhibition is half-maximal) at human 11β-HSD1 was found to be 410 nM.

As to `O=C(COCc1ccsc1)C12CC3CC(CC(C3)C1)C2` [Compound 7, 1-(Adamantan-1-yl)-2-(thiophen-3-ylmethoxy)ethanone], the melting point was 58 to 60 °C. For the same compound, the concentration for half-maximal inhibition (IC50) on human 11β-HSD1 amounted to 280 nM.

Turning to `O=C(COCc1nccs1)C12CC3CC(CC(C3)C1)C2` [Compound 8, 1-(Adamantan-1-yl)-2-(1,3-thiazol-2-ylmethoxy)ethanone], the melting point is 89 to 91 °C. On human 11β-HSD1, inhibition was half-maximal at 41 nM (IC50). Also, at mouse 11β-HSD1, the half-maximal inhibitory concentration (IC50) was 18 nM.

`Cc1csc(COCC(=O)C23CC4CC(CC(C4)C2)C3)n1` [Compound 9, 1-(Adamantan-1-yl)-2-[(4-methyl-1,3-thiazol-2-yl)methoxy]ethanone] showed a melting point of 77 to 80 °C.

On to `O=C(CSCc1cccs1)C12CC3CC(CC(C3)C1)C2` [Compound 10, 1-(Adamantan-1-yl)-2-(thiophen-2-ylmethylsulfanyl)ethanone], for which inhibition against human 11β-HSD1 was half-maximal at 143 nM (IC50).

Consider `O=C(CSCc1ccco1)C12CC3CC(CC(C3)C1)C2` [Compound 11, 1-(Adamantan-1-yl)-2-(furan-2-ylmethylsulfanyl)-ethanone], for which, at human 11β-HSD1, the IC50 worked out at 163 nM.

`O=C(CSCc1nccs1)C12CC3CC(CC(C3)C1)C2` [Compound 12, 1-(Adamantan-1-yl)-2-[(1,3-thiazol-2-ylmethyl)sulfanyl]ethanone] came in with a melting point of 55 to 58 °C. The compound further had an IC50 against human 11β-HSD1 of 244 nM.

In the case of `Cc1csc(CSCC(=O)C23CC4CC(CC(C4)C2)C3)n1` [Compound 13, 1-(Adamantan-1-yl)-2-{[(4-methyl-1,3-thiazol-2-yl)methyl]sulfanyl}ethanone], the IC50 against human 11β-HSD1 came out at 327 nM.

Take `O=C(C[S+]([O-])Cc1ccco1)C12CC3CC(CC(C3)C1)C2` (stereo not shown) [Compound 15, 1-(Adamantan-1-yl)-2-(furan-2-ylmethanesulfinyl)ethanone]: the melting point fell in the range of 75 to 79 °C. Also, the concentration for half-maximal inhibition (IC50) on human 11β-HSD1 was 41 nM. The same compound showed an IC50 against mouse 11β-HSD1 of 38 nM.

Take `COC(=O)c1ccc(CSCC(=O)C23CC4CC(CC(C4)C2)C3)o1` [Compound 18, Methyl 5-({[2-(adamantan-1-yl)-2-oxoethyl]sulfanyl}methyl)furan-2-carboxylate]: at human 11β-HSD1, it took 264 nM to reach half-maximal inhibition (IC50).

Regarding `O=C(O)c1ccc(CSCC(=O)C23CC4CC(CC(C4)C2)C3)o1` [Compound 19, 5-(((2-(Adamantan-1-yl)-2-oxoethyl)thio)methyl)furan-2-carboxylic acid], the inhibition – broadly, the drop in the measured response relative to a control, in per cent – at 1 µM at human 11β-HSD1 came to 67%.

On human 11β-HSD1, `CN(C)C(=O)c1ccc(CSCC(=O)C23CC4CC(CC(C4)C2)C3)o1` [Compound 20, 5-({[2-(Adamantan-1-yl)-2-oxoethyl]sulfanyl}methyl)-N,N-dimethylfuran-2-carboxamide] gave an IC50 of 153 nM.

Compound `O=C(CSc1cccs1)C12CC3CC(CC(C3)C1)C2` [Compound 26, 1-(Adamantan-1-yl)-2-(thiophen-2-ylsulfanyl)-ethanone] registered a melting point of 69 to 72 °C. The same compound had an IC50 against human 11β-HSD1 of 101 nM.

The compound `Cn1ccnc1SCC(=O)C12CC3CC(CC(C3)C1)C2` [Compound 27, 1-(Adamantan-1-yl)-2-(1-methyl-1H-imidazol-2-ylsulfanyl)-ethanone] returned a melting point of 65 to 69 °C. This compound displayed an IC50 against human 11β-HSD1 of 93 nM.

Take `Cc1nnc(SCC(=O)C23CC4CC(CC(C4)C2)C3)s1` [Compound 29, 1-(Adamantan-1-yl)-2-(5-methyl-[1,3,4]thiadiazol-2-ylsulfanyl)-ethanone]: the melting point was in the range of 102 to 105 °C.

`Cn1cnnc1[S+]([O-])CC(=O)C12CC3CC(CC(C3)C1)C2` (stereo not shown) [Compound 32, 1-(Adamantan-1-yl)-2-(4-methyl-4H-[1,2,4]triazole-3-sulfinyl)ethanone] registered a melting point of 124.5 to 127 °C. This compound also had an IC50 against human 11β-HSD1 of 27 nM. In addition, the IC50 at mouse 11β-HSD1 is 3080 nM.

Compound `Cc1nnc([S+]([O-])CC(=O)C23CC4CC(CC(C4)C2)C3)s1` (stereo not shown) [Compound 33, 1-(Adamantan-1-yl)-2-(5-methyl-[1,3,4]thiadiazole-2-sulfinyl)ethanone] yielded a melting point of 127 to 129 °C. Besides, 26 nM corresponded to half-maximal inhibition at human 11β-HSD1 (IC50). This compound also displayed an IC50 at mouse 11β-HSD1 of 44 nM.

Turning to `Cn1ccnc1S(=O)(=O)CC(=O)C12CC3CC(CC(C3)C1)C2` [Compound 35, 1-(Adamantan-1-yl)-2-(1-methyl-1H-imidazole-2-sulfonyl)ethanone], the melting point was 124 to 125 °C. On human 11β-HSD1, the IC50 was 62 nM.

`Cn1cnnc1S(=O)(=O)CC(=O)C12CC3CC(CC(C3)C1)C2` [Compound 36, 1-(Adamantan-1-yl)-2-(4-methyl-4H-[1,2,4]triazole-3-sulfonyl)ethanone] returned a melting point of 149 to 150 °C. This compound gave an IC50 at human 11β-HSD1 of 95 nM.

For `Cc1nnc(SCC(=O)C23CC4CC(CC(C4)C2)C3)n1C` [Compound 38, 1-(Adamantan-1-yl)-2-[(4,5-dimethyl-1,2,4-triazol-3-yl)sulfanyl]ethanone], the IC50 at human 11β-HSD1 came to 36 nM; at mouse 11β-HSD1 it was 248 nM. Moreover, the “inhibition against 17β-HSD1” value at 17β-HSD1 was “inactive”. Also, at human 11β-HSD2, the “inhibition against human 11β-HSD2” value is “inactive”.

For `Cc1nnc(SCC(=O)C23CC4CC(CC(C4)C2)C3)n1C(C)C` [Compound 39, 1-(Adamantan-1-yl)-2-{[5-methyl-4-(propan-2-yl)-4H-1,2,4-triazol-3-yl]sulfanyl}ethanone], on human 11β-HSD1, the IC50 stood at 137 nM.

In turn, `Cn1c(SCC(=O)C23CC4CC(CC(C4)C2)C3)nnc1C1CC1` [Compound 40, 1-(Adamantan-1-yl)-2-[(5-cyclopropyl-4-methyl-4H-1,2,4-triazol-3-yl)sulfanyl]ethanone] came in with a concentration for half-maximal inhibition (IC50) on human 11β-HSD1 of 129 nM.

`COCc1nnc(SCC(=O)C23CC4CC(CC(C4)C2)C3)n1C` [Compound 41, 1-(Adamantan-1-yl)-2-{[5-(methoxymethyl)-4-methyl-4H-1,2,4-triazol-3-yl]sulfanyl}ethanone]: the IC50 against human 11β-HSD1 worked out at 153 nM.

In the case of `COC(=O)Cc1nnc(SCC(=O)C23CC4CC(CC(C4)C2)C3)n1C` [Compound 42, Methyl 2-(5-{[2-(adamantan-1-yl)-2-oxoethyl]sulfanyl}-4-methyl-4H-1,2,4-triazol-3-yl)acetate], the IC50 at human 11β-HSD1 worked out at 97 nM.

`O=C(CSc1nnc(C2CC2)n1C1CC1)C12CC3CC(CC(C3)C1)C2` [Compound 43, 1-(Adamantan-1-yl)-2-[(4,5-dicyclopropyl-4H-1,2,4-triazol-3-yl)sulfanyl]ethanone] displayed a melting point of 117 to 119 °C. The compound also came in with an IC50 on human 11β-HSD1 of 1860 nM.

Consider `Cn1c(SCC(=O)C23CC4CC(CC(C4)C2)C3)nnc1-c1cccs1` [Compound 44, 1-(Adamantan-1-yl)-2-{[4-methyl-5-(thiophen-2-yl)-4H-1,2,4-triazol-3-yl]sulfanyl}ethanone], for which the melting point was in the range of 156 to 157 °C. Also, the IC50 against human 11β-HSD1 came to 5870 nM.

On human 11β-HSD1, `CN(C)c1nnc(SCC(=O)C23CC4CC(CC(C4)C2)C3)s1` [Compound 45, 1-(Adamantan-1-yl)-2-{[5-(dimethylamino)-1,3,4-thiadiazol-2-yl]sulfanyl}ethanone] returned an IC50 of 4000 nM.

The compound `CSc1nnc(SCC(=O)C23CC4CC(CC(C4)C2)C3)s1` [Compound 46, 1-(Adamantan-1-yl)-2-{[5-(methylsulfanyl)-1,3,4-thiadiazol-2-yl]sulfanyl}ethanone] showed a melting point of 133.5 to 135 °C. The same compound displayed a half-maximal inhibitory concentration (IC50) on human 11β-HSD1 of 306 nM.

Take `CCSc1nnc(SCC(=O)C23CC4CC(CC(C4)C2)C3)s1` [Compound 47, 1-(Adamantan-1-yl)-2-{[5-(ethylsulfanyl)-1,3,4-thiadiazol-2-yl]sulfanyl}ethanone]: the inhibition at 1 µM on human 11β-HSD1 is 68%.

In turn, `Nc1nnc(SCC(=O)C23CC4CC(CC(C4)C2)C3)s1` [Compound 48, 1-(Adamantan-1-yl)-2-[(5-amino-1,3,4-thiadiazol-2-yl)sulfanyl]ethanone] registered a melting point of 198 to 199 °C. This compound returned an IC50 against human 11β-HSD1 of 71 nM.

Compound `Nc1nnc(S(=O)(=O)CC(=O)C23CC4CC(CC(C4)C2)C3)s1` [Compound 49, 1-(Adamantan-1-yl)-2-(5-amino-1,3,4-thiadiazole-2-sulfonyl)ethanone] displayed a melting point of 202 to 204 °C. The IC50 against human 11β-HSD1 amounted to 1790 nM.

As to `CC(=O)Nc1nnc(SCC(=O)C23CC4CC(CC(C4)C2)C3)s1` [Compound 50, N-(5-{[2-(Adamantan-1-yl)-2-oxoethyl]sulfanyl}-1,3,4-thiadiazol-2-yl)acetamide], half-maximal inhibition on human 11β-HSD1 (IC50) was put at 848 nM.
